# Measured values reported in patent publication US10907168B2, “Jasmonic acid pathway activator” (MEDICAGO INC., priority 2015, dated 2021).
# Tested on: C5-1 antibody
# Assay: C5-1 antibody quantification by ELISA in agroinfiltrated leaves
# Format: in vivo, Nicotiana benthamiana
# Details: ELISA; 1 mM, leaves treated 24 h before infiltration
# Procedure: Forty-two day-old N. benthamiana plants grown in greenhouse were used for the experiments. Each plant was sprayed evenly with 50 ml of 0.5 mM, 1 mM or 2 mM MeJA in water containing 0.1% (v/v) Triton X-100 (Sigma-Aldrich, Mississauga ON, Canada), or with 50 ml of 1 mM arachidonic acid (Girard et al., 2007) in the same solvent, and transferred for seven days in a Conviron growth chamber (Conviron, Winnipeg MB, Canada). Plants sprayed with 50 ml of 0.1% (v/v) Triton X-100 in water were used in parallel as negative controls to avoid confounding effects due to experimental conditions. Two or three 1-cm^2 leaf discs were harvested from the third main stem leaf (see Robert et al., 2013) after seven days, as source material for protein and RNA extraction. The leaf samples were frozen immediately in liquid nitrogen and stored at −80° C. until protein or RNA extraction. Three to five biological (plant) replicates were used for each treatment, to allow for statistical treatment of the data. Two gene vectors were used for the agroinfiltration assays: an engineered pcambia2300 vector encoding the light and heavy chains of C5-1 fused to an N-terminal signal peptide sequence for cellular secretion (see Goulet et al., 2012 for details on gene construct); and the original (“empty”) pcambia2300 binary vector (CAMBIA, Canberra, Australia) as a control for agroinfection. The two binary vectors were electroporated into A. tumefaciens strain LBA4404 and the cultures were maintained in Luria-Bertani (LB) medium supplemented with 50 μg/ml kanamycin and 50 μg/ml rifampicin. For infiltration, bacteria were grown to stable phase at 28° C. to an OD600 of 1.0 and collected by centrifugation at 2,000 g. The bacterial pellets were resuspended in 10 mM 2-[N-morpholino] ethanesulfonic acid] (MES) buffer, pH 5.8, containing 100 μM acetosyringone and 10 mM MgCl2. Leaf infiltration was performed using a needle-less syringe as described earlier (D'Aoust et al., 2009), after mixing the C5-1 antibody (or empty vector) agrobacterial suspension with an equal volume of bacterial suspension carrying a binary vector for the protein silencing suppressor p19 (Voinnet et al., 2003). Infiltrated tissue for molecular characterization was collected six days post-infection (i.e. seven days post-MeJA or arachidonate treatment), unless otherwise indicated. Three to five biological (plant) replicates were used for each treatment to allow for statistical analyses. ELISA plates for C5-1 antibody quantification (Becton Dickinson, Mississauga ON, Canada) were coated with 3.75 μg/ml goat anti-mouse heavy chain-specific IgG1 (Sigma-Aldrich) in 50 mM carbonate buffer (pH 9.0) at 4° C. for 16-18 h. The plates were washed three times in 10 mM phosphate-buffered saline containing 0.1% (v/v) Tween 20 (PBS-T), blocked through a 1-h incubation at 37° C. in 1% (w/v) casein in phosphate-buffered saline (PBS) (Pierce, Rockford Ill., USA), and washed three times in PBS-T. A standard curve was generated for each plate with 0, 4, 8, 16, 24, 32, 40 and 60 ng/ml of purified mouse IgG1 (Sigma-Aldrich). All dilutions (controls and samples) were performed in a control extract obtained from leaf tissue infiltrated with a mock inoculum so that any matrix effect was eliminated. The plates were incubated with protein samples for 1 h at 37° C., washed three times in PBS-T and then incubated with peroxidase-conjugated goat anti-mouse IgG (H+L) antibodies (0.02 μg/ml in blocking solution) (Jackson ImmunoResearch) for 1 h at 37° C. After additional washes with PBS-T, the plates were incubated with the 3,3′,5,5′-tetramethylbenzidine Sure Blue peroxidase substrate (KPL, Gaithersburg Md., USA). The reaction was stopped by the addition of 1 N HCl and the absorbance was read at 450 nm. Three independent (biological) replicates were used for each assay.
smiles,measurement,value
CCCCC/C=C\C/C=C\C/C=C\C/C=C\CCCC(=O)O [arachidonic acid],C5-1 yield change,No yield increase
